Results published in patent US10093713B2, “GIP-GLP-1 dual agonist compounds and methods” (priority 2013, dated 2018).
Read-outs that look alike come from different tables or passages of the source. *1 amine or outer side, *2 acyl side, *3 side chain or, on linkers, in order; H or OH if unused. Where a SMILES comes first, the peptide text is derived from it. Side-chain parts run from the residue outwards. [ ]: non-standard residue; d: D form. The star is where a group is joined. C20 diacid = O=C(O)CCCCCCCCCCCCCCCCCCC(=O)*; γGlu = O=C(O)[C@H](CCC(=O)[*:2])N[*:1]; AEEA = NCCOCCOCC(=O)O; Aib = CC(C)(N)C(=O)O

How the values were obtained:
human GIP R = molecular target: T1, human GIP R (Homo sapiens, UniProt P48546); assay: Human GIP receptor (GIP R) activity assay, cAMP induction (AlphaScreen) in HEK293 cells; format: cell-based; settings: Table 2; HEK293 cells expressing human GIP R; read-out: hGIP-R cAMP EC50 average value
T1 construct: expressed in transfected cells
T1 sequence (P48546 22-466): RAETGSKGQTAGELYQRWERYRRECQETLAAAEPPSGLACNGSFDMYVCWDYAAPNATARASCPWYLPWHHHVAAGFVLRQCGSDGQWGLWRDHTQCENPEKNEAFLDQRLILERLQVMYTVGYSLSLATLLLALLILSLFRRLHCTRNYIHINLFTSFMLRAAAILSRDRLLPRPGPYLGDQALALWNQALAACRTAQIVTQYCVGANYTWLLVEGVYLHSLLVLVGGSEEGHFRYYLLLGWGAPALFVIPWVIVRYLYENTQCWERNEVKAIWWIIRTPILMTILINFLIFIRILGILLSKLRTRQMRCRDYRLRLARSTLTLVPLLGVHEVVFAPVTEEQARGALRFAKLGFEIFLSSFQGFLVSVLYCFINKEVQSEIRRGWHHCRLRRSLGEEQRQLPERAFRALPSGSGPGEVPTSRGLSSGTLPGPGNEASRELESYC
Summary of the method: (§1)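 Stable HEK293 clones expressing human GIP R or GLP-1 R, seeded 1 day before; cells washed in Tyrode's buffer (10 mM HEPES, pH 7.4), stimulated, then lysed. cAMP measured by AlphaScreen bead competition (1 h, room temperature, dark). EC50 = concentration giving half-maximal cAMP elevation, from curves of absolute cAMP (nM) vs log concentration.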

[1] = Pharmacokinetics of selected compounds in mice; format: in vivo, C57BL/6J mice; settings: male, C57BL/6J, mouse, plasma
Summary of the method: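 Male C57BL/6J mice (~25 g) got single s.c. or i.v. bolus (50, 100 or 200 nmol/kg) in mannitol phosphate buffer, pH 7.5; plasma sampled at 8 timepoints to 72 h (s.c.) or 48 h (i.v.), two mice per point, measured by LC-MS/MS. Non-compartmental T½, Tmax and bioavailability (AUCinf s.c./i.v.) from mean concentrations.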

human GLP-1 R = molecular target: T2, human GLP-1 R (Homo sapiens, UniProt P43220); assay: Human GLP-1 receptor (GLP-1 R) activity assay, cAMP induction (AlphaScreen) in HEK293 cells; format: cell-based; settings: Table 2; HEK293 cells expressing human GLP-1 R; read-out: hGLP1-R cAMP EC50 average value
T2 construct: expressed in transfected cells
Summary of the method: as §1

[2] = molecular target: T3, human GIP receptor (human) (UniProt P48546); assay: cell-based or functional assay
T3 sequence: T1 sequence (P48546 22-466)

T2 sequence (P43220 24-463): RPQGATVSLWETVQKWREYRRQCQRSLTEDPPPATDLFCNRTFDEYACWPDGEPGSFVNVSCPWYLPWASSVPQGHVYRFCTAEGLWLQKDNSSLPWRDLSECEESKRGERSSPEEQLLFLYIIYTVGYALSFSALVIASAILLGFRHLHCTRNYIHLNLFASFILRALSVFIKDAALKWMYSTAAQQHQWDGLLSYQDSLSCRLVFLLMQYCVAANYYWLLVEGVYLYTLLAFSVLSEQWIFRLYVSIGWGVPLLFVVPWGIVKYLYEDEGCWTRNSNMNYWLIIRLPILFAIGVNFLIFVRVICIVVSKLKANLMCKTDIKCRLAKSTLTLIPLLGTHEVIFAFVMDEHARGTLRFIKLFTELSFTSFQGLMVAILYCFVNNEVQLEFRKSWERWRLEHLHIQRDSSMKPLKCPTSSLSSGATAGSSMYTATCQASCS

| Compound | EC50 (human GIP R) [nM] | half-life ([1]; iv, single i.v. bolus, read-out: T½ terminal elimination half-life, i.v. (converted)) [h] | bioavailability ([1]; subcutaneous, AUCinf (s.c.)/AUCinf (i.v.)x100, values marked * capped to 100%) [%] | Tmax ([1]; sc, single s.c. bolus) [h] | half-life ([1]; sc, single s.c. bolus, read-out: T½ terminal elimination half-life, s.c. (converted)) [h] | EC50 (human GLP-1 R) [nM] | EC50, hGIP-R cAMP [2] [nM] |
| --- | --- | --- | --- | --- | --- | --- | --- |
| CC[C@H](C)[C@H](NC(=O)[C@H](CO)NC(=O)[C@H](CC(C)C)NC(=O)[C@H](CC(=O)O)NC(=O)[C@H](CO)NC(=O)[C@@H](NC(=O)[C@H](Cc1ccccc1)NC(=O)[C@@H](NC(=O)CNC(=O)[C@H](CCC(=O)O)NC(=O)C(C)(C)NC(=O)[C@@H](N)Cc1ccc(O)cc1)[C@@H](C)O)[C@@H](C)O)C(=O)N[C@@H](C)C(=O)N[C@@H](CC(C)C)C(=O)N[C@@H](CCC(=O)O)C(=O)N[C@@H](CCCCN)C(=O)N[C@@H](CCCCNC(=O)COCCOCCNC(=O)COCCOCCNC(=O)CC[C@H](NC(=O)CCCCCCCCCCCCCCCCCCC(=O)O)C(=O)O)C(=O)N[C@@H](C)C(=O)N[C@@H](CCC(N)=O)C(=O)N[C@@H](CCCNC(=N)N)C(=O)N[C@@H](C)C(=O)N[C@@H](Cc1ccccc1)C(=O)N[C@H](C(=O)N[C@@H](CCC(=O)O)C(=O)N[C@@H](Cc1c[nH]c2ccccc12)C(=O)N[C@@H](CC(C)C)C(=O)N[C@@H](CC(C)C)C(=O)N[C@@H](C)C(=O)N[C@@H](CCC(N)=O)C(=O)N[C@@H](CCCCN)C(=O)N1CCC[C@H]1C(=O)N[C@@H](CO)C(=O)N[C@@H](CO)C(=O)NCC(=O)N[C@@H](C)C(=O)N1CCC[C@H]1C(=O)N1CCC[C@H]1C(=O)N1CCC[C@H]1C(=O)N[C@@H](CO)C(N)=O)C(C)C [Compound 34] (H-Y[Aib]EGTFTSDLSIALEKK([AEEA-AEEA-γGlu-C20 diacid])AQRAFVEWLLAQKPSSGAPPPS-NH2) | 0.012 | 14.9 | 79 | 8 | 17.1 | 0.015 |  |
| hGIP (from UniProt P09681 52-93) (ligand) |  |  |  |  |  |  | 0.003 |
| hGLP-1 (from UniProt P01275 92-128) (ligand) |  |  |  |  |  |  | > 10 |
